Assay results from patent US11085056B2, “Transfection complexes and methods of using the same” (MOLECULAR TRANSFER, INC., priority 2015, dated 2021).

Legend:
[1] = test system: Human Fibroblast Cells; assay: Transfection of human fibroblast cells with DOTMA/DOPE/peptide and eGFP plasmid, fluorescent plate reader; assay type: cell-based; settings: DOTMA/DOPE 1:1 plus peptide with RRRRRRRRRRRR (SEQ ID NO: 109) at n terminus; EF1Alpha eGFP plasmid; 0.01 mL complex; 42 hours
Protocol: (§1) Cells were plated to so that on the day of transfection the cells were 60-70% confluent in 96 well tissue culture plates. A DOMTA/DOPE Lipid solution (1:1 molar ratio) at 2 mg/mL in water were mixed with an equal volume of surface ligand peptides that had the nucleic acid binding moiety RRRRRRRRRRRR (SEQ ID NO: 109) covalently linked to the n terminus of each peptide during peptide synthesis. Peptides were at 2 mg/mL in water. The DOTMA/DOPE and the surface ligand peptide solution the transfection reagent was diluted 1 to 1 (v/v) in water. DOMTA/DOPE/PEPTIDE solutions were added to 0.1 mL of a plasmid DNA solution (EF1Alpha eGFP plasmid) at 5 μg/mL in OptiMEM. Lipofectamine 2000 was obtained from Life Technologies.
(§2) All solutions were at room temperature. A volume of 0.2 mL of a 5 μg/mL solution of DNA was aliquoted into each well of a non-tissue cultured treated plate. 4.0 μL of transfection reagents were added to DNA solutions respectively. The transfection reagent and DNA solution was mixed by pipetting up and down twice. Transfection complexes were formed for 10 minutes. After 10 minutes, 0.01 or 0.02 mL of the transfection complex was added to cells. HuVEC, HeLa, human adult keratinocytes, human primary adult fibroblast, and rat cortical neurons all respectively received 0.01 mL of the tramsfectopm complex. Human skeletal muscle cells, mouse C2C12 cells, Jurkat, and THP-1 cells received 0.02 mL of the transfection complex. Cells were incubated for 42 hours at 37° C. at 5% CO2. Plates were read on a fluorescent plate reader. Cells were also examined visually under a microscope to assess the extent of transfection (in terms of the percent of cells transfected) with a fluorescent microscope. Other modes of analysis, for example quantification with B-galactosidase or luciferase reports plasmids can also be used. […] Surface ligand that caused increase expression of GFP over the lipid DOTMA with no surface ligand were considered to enhance transfection or had higher % cells transfected were considered to enhance transfection. Peptides that gave greater than 2 fold enhancement are noted in bold and could be further optimized by adding different transfection enhancers or could be used with different cationic lipids or polymers.

[2] = test system: HuVec Cells; assay: Transfection of HuVec cells with DOTMA/DOPE/peptide and eGFP plasmid, fluorescent plate reader; assay type: cell-based; settings: DOTMA/DOPE 1:1 plus peptide with RRRRRRRRRRRR (SEQ ID NO: 109) at n terminus; EF1Alpha eGFP plasmid; 0.01 mL complex; 42 hours
Protocol: as §1, §2

[3] = test system: HeLa Cells; assay: Transfection of HeLa cells with DOTMA/SEQ ID NO: 72/peptide compared with Lipofectamine 2000; assay type: cell-based; settings: fusogenic peptide 0.1 mg/mL
Protocol: as §1, §2
The fusogenic peptide was added to the DOMTA/peptide formulation to achieve a final concentration of 0.1 mg/mL to see if transfection reagents were further enhanced by the addition of a fusogenic peptide and could provide higher transfection efficiency into HeLa cells and expression than the commercially available Lipofectamine 2000.

[4] = test system: C2C12 Cells; assay: Transfection of C2C12 cells with DOTMA/DOPE/peptide and eGFP plasmid, fluorescent plate reader; assay type: cell-based, mouse; settings: DOTMA/DOPE 1:1 plus peptide with RRRRRRRRRRRR (SEQ ID NO: 109) at n terminus; EF1Alpha eGFP plasmid; 0.02 mL complex; 42 hours
Protocol: as §1, §2

[5] = test system: Jurkat Cells; assay: Transfection of Jurkat cells with DOTMA/DOPE/peptide and eGFP plasmid, fluorescent plate reader; assay type: cell-based; settings: DOTMA/DOPE 1:1 plus peptide with RRRRRRRRRRRR (SEQ ID NO: 109) at n terminus; EF1Alpha eGFP plasmid; 0.02 mL complex; 42 hours
Protocol: as §1, §2

[6] = test system: some examined cell types; assay: Transfection expression and % cells transfected over the no peptide control; assay type: cell-based; settings: on some examined cell types
Protocol: as §1, §2

[7] = test system: NL-1 iPS Cells; assay: Transfection of NL-1 iPS cells with DOTMA/DOPE/peptide and eGFP plasmid, fluorescent plate reader; assay type: cell-based; settings: DOTMA/DOPE 1:1 plus peptide with RRRRRRRRRRRR (SEQ ID NO: 109) at n terminus; EF1Alpha eGFP plasmid; 42 hours
Protocol: as §1, §2

[8] = test system: HeLa Cells; assay: Transfection of HeLa cells with DOTMA/DOPE/peptide and eGFP plasmid, fluorescent plate reader; assay type: cell-based; settings: DOTMA/DOPE 1:1 plus peptide with RRRRRRRRRRRR (SEQ ID NO: 109) at n terminus; EF1Alpha eGFP plasmid; 0.01 mL complex; 42 hours
Protocol: as §1, §2

[9] = 0.1 μL of DOTMA/SEQ ID NO: 72/Peptide in well of a 96 well plate
[10] = 0.2 μL of DOTMA/SEQ ID NO: 72/Peptide in well of a 96 well plate
[11] = 0.3 μL of DOTMA/SEQ ID NO: 72/Peptide in well of a 96 well plate
[12] = 0.4 μL of DOTMA/SEQ ID NO: 72/Peptide in well of a 96 well plate

Substance	RF (Relative Fluorescence) of Transfection of Human Fibroblast Cells [1]	RF (Relative Fluorescence) of Transfection of HuVec Cells [2]	RF (Relative Fluorescence), DOTMA/SEQ ID NO: 72/Peptide, HeLa Cells [3, 9]	RF (Relative Fluorescence), DOTMA/SEQ ID NO: 72/Peptide, HeLa Cells [3, 10]	RF (Relative Fluorescence), DOTMA/SEQ ID NO: 72/Peptide, HeLa Cells [3, 11]	RF (Relative Fluorescence), DOTMA/SEQ ID NO: 72/Peptide, HeLa Cells [3, 12]	RF (Relative Fluorescence) of Transfection of C2C12 Cells [4]	RF (Relative Fluorescence) of Transfection of Jurkat Cells [5]	transfection expression and the % cells transfected over the no peptide control [6]	RF (Relative Fluorescence) of Transfection of NL-1 iPS Cells [7]	RF (Relative Fluorescence) of Transfection of HeLa Cells [8]
219 (RKRLQVQLSIRT; Peptidic transfection agent) [compound 219]	7389	6237	12135	13841	13531	11712	1346	10762	increased	5770	13721
355 (FRHRNRKGY; Peptidic transfection agent) [compound 355]	6821	14810	18362	27990	22367	18289	1900	8132	increased	7910	32628
379 (TAGSCLRKF; Peptidic transfection agent) [compound 379]	8520	14573	50018	47049	39036	26448	3189	7711	increased	6894	27424
338 (GTPGPQGIA; Peptidic transfection agent) [compound 338]	5625	12000	–	–	–	–	2290	4475	increased	17288	6241
220 (ATETTITIS; Peptidic transfection agent) [compound 220]	4516	8737	–	–	–	–	1470	6428	increased	15892	9398
216 (YRVRVTPKEKTGPMKE; Peptidic transfection agent) [compound 216]	3117	14693	–	–	–	–	1001	3570	increased	19626	6181
205 (AASIKVAVSADR; Peptidic transfection agent) [compound 205]	8550	8309	–	–	–	–	2102	2298	increased	13140	26368
359 (KAFDITYVRLKF; Peptidic transfection agent) [compound 359]	3206	3024	–	–	–	–	5693	1880	increased	5548	3136
230 (WQPPRARI; Peptidic transfection agent) [compound 230]	11771	9067	–	–	–	–	2606	10229	increased	14524	8944
239 (KNSFMALYLSKGRLVFALG; Peptidic transfection agent) [compound 239]	4084	1404	–	–	–	–	10620	2343	increased	4129	2717
226 (ANGQTPIQRYIK; Peptidic transfection agent) [compound 226]	3431	20864	–	–	–	–	1664	12976	increased	24920	7340
332 (TWYKIAFQRNRK; Peptidic transfection agent) [compound 332]	5178	4221	–	–	–	–	537	3052	increased	8725	9198
327 (VAEIDGIEL; Peptidic transfection agent) [compound 327]	4662	21018	–	–	–	–	2043	14546	increased	31383	5345
345 (TAGSCLRKFSTMFLF; Peptidic transfection agent) [compound 345]	2816	2939	–	–	–	–	6569	2462	increased	7836	8493
